Measurements from the CheMixHub viscosity set.

Test: xn = mol fraction of the nth substance listed

CCCCCC + CCCCCCCCCC
298.15 K, 101.33 kPa
Details | viscosity [mPa·s]
x1 = 0.1074 | 0.7809
x1 = 0.2074 | 0.7182
x1 = 0.3029 | 0.6515
x1 = 0.4046 | 0.5846
x1 = 0.5041 | 0.5315
x1 = 0.6061 | 0.4805
x1 = 0.7053 | 0.4337
x1 = 0.8034 | 0.3791
x1 = 0.9036 | 0.3365

C=CC(=O)OC + CCCCCCCCCCCC
viscosity [mPa·s], 100 kPa
Details | x1 = 0.0959 | x1 = 0.1996 | x1 = 0.3063 | x1 = 0.4005 | x1 = 0.5043 | x1 = 0.603 | x1 = 0.7008 | x1 = 0.8015 | x1 = 0.8993
303.15 K | 1.129 | 1.019 | 0.916 | 0.831 | 0.745 | 0.67 | 0.601 | 0.54 | 0.486
308.15 K | 1.017 | 0.918 | 0.825 | 0.751 | 0.674 | 0.611 | 0.554 | 0.502 | 0.458
313.15 K | 0.963 | 0.867 | 0.779 | 0.709 | 0.638 | 0.58 | 0.528 | 0.478 | 0.438

CC(C)(C)c1ccccc1 + CCCCCCCCCCCC
viscosity [mPa·s], 102 kPa
Details | x1 = 0.1017 | x1 = 0.2009 | x1 = 0.2995 | x1 = 0.4002 | x1 = 0.5001 | x1 = 0.5979 | x1 = 0.699 | x1 = 0.8 | x1 = 0.9006
293.15 K | 1.43 | 1.37 | 1.32 | 1.27 | 1.22 | 1.18 | 1.16 | 1.14 | 1.13
303.15 K | 1.2 | 1.16 | 1.12 | 1.08 | 1.05 | 1.02 | 0.998 | 0.982 | 0.975
313.15 K | 1.03 | 0.998 | 0.971 | 0.942 | 0.916 | 0.895 | 0.874 | 0.859 | 0.854
323.15 K | 0.9 | 0.872 | 0.846 | 0.825 | 0.804 | 0.787 | 0.77 | 0.758 | 0.752

C=CC(=O)OC + CCCCCCCCCCCCC
viscosity [mPa·s], 100 kPa
Details | x1 = 0.1018 | x1 = 0.1995 | x1 = 0.3067 | x1 = 0.4044 | x1 = 0.5002 | x1 = 0.6038 | x1 = 0.7058 | x1 = 0.8043 | x1 = 0.9012
303.15 K | 1.375 | 1.235 | 1.091 | 0.974 | 0.868 | 0.765 | 0.673 | 0.593 | 0.513
308.15 K | 1.178 | 1.058 | 0.936 | 0.838 | 0.752 | 0.669 | 0.598 | 0.538 | 0.477
313.15 K | 1.056 | 0.953 | 0.845 | 0.762 | 0.689 | 0.618 | 0.554 | 0.498 | 0.446

CCCCCCCCCCCCc1ccccc1 + CCCCCCCCCCCCCCCC
viscosity [mPa·s], 102 kPa
Details | x1 = 0.09264 | x1 = 0.1868 | x1 = 0.2826 | x1 = 0.3803 | x1 = 0.4789 | x1 = 0.5793 | x1 = 0.6819 | x1 = 0.786 | x1 = 0.892
293.15 K | 3.55 | 3.67 | 3.82 | 3.99 | 4.16 | 4.36 | 4.59 | 4.85 | 5.14
303.15 K | 2.81 | 2.9 | 3.01 | 3.13 | 3.26 | 3.41 | 3.58 | 3.76 | 3.97
313.15 K | 2.27 | 2.35 | 2.43 | 2.52 | 2.63 | 2.74 | 2.86 | 3 | 3.16
323.15 K | 1.88 | 1.94 | 2.01 | 2.08 | 2.16 | 2.25 | 2.34 | 2.45 | 2.57
